Data: PMC9691367, “The PROTAC selectively degrading Bcl-xL represents a novel Hedgehog pathway inhibitor with capacity of combating resistance to Smoothened inhibitors while sparing bone growth” (Theranostics, 2022)

Experiments:
Format in all cases: cell-based
[1] = tested on: Gli1; assay: Western blot of Gli1 in light II cells; conditions: 1 µM
Experimental: Cells were lysed in cell lysis buffer (50 mM Tris pH 8.0, 150 mM NaCl, 10% glycerol, 1 mM EDTA, 50 mM NaF, and 0.1% NP-40) supplemented with protease and phosphatase inhibitors. Total protein extracts of tissues were generated in radioimmunoprecipitation (RIPA) assay lysis buffer containing complete protease and phosphatase inhibitor cocktail. Protein content was quantified using the Pierce BCA Protein Assay Kit (#23225, Thermo Fisher Scientific). The proteins were separated by SDS-PAGE, electrophoretically transferred to polyvinylidene difluoride (PVDF) blotting membranes (#LC2002, Thermo Fisher Scientific), and subjected to routine immunoblot analysis with primary antibodies as follows: anti-Bcl-2 (#15071), anti-Mcl-1 (#94296), anti-VHL (#68547), anti-CRBN (#71810), and anti-Sufu (#2522) were obtained from Cell Signaling Technology (Danvers, Massachusetts, USA); anti-Bcl-xL (#ab32370), anti-Gli1 (#ab134906), and anti-Smoothened (#ab236465) were obtained from Abcam (Cambridge, CB2 0AX, UK); anti-GAPDH (#60004-1-Ig) and anti-β-tubulin (#10094-1-AP) were purchased from Proteintech Group, Inc. (Rosemont, IL 60018, USA). The results were quantified by densitometry using ImageJ software (NIH).

[2] = tested on: Hh pathway (Gli-luciferase) provoked by Gli2; assay: Dual luciferase reporter assay, Hh activity initiated by ectopic Gli2-HA in light II cells
From the text: The TCF/LEF luciferase reporter plasmid, NF-κB luciferase reporter plasmid, and TK-Renilla luciferase plasmid were purchased from Promega (Madison, WI, USA). Smo plasmid was purchased from Origene (Rockville, MD, USA). The Smo mutant plasmids were generated from wild type Smo plasmid using QuickChange Site-Directed Mutagenesis kit from Agilent (Santa Clara, CA, USA) and confirmed by sequencing. Information on Smo mutants plasmids is provided in Supplementary data 2. The Gli1 plasmid and Gli2-HA plasmid were obtained from Addgene (Cambridge, MA, USA). Transient transfections were performed by Lipofectamine 2000 reagent from Invitrogen (Grand Island, NY, USA) according to the manufacturer's instructions.
(§1) Cells seeded in 96-well plates were treated with various treatments as indicated. The luciferase activity in the cell lysates was measured using Dual-Luciferase Reporter Assay System (Promega, Madison, WI, USA) according to the manufacturer's instructions in a luminometer (Molecular Devices, Sunnyvale, CA). The firefly luciferase values were normalized to Renilla values.

[3] = tested on: Wnt signaling pathway; assay: TCF/LEF luciferase reporter assay in LS174T cells; conditions: PGE2 1 μM, 24 h, SIAIS361034 10 μM, H-89 20 μM
Experimental: as §1, with “values. […]” for “values.”
(§2) μM) for 6 h. Data represent mean ± SD (n = 3). (C) TCF/LEF luciferase analysis of the effect of SIAIS361034 on Wnt signaling pathway in LS174T cells. The LS174T cellswere transfected with TCF/LEF luciferase reporter and Renilla-TK plasmids and […]
(§3) Data represent mean ± SD (n = 3).
(§4) (1 picture or pasted object on this page, not shown here)

[4] = tested on: Gli1 and Ptch1 mRNA; assay: RT-qPCR of Hh target genes in NIH-3T3 cells exposed to SAG; conditions: 36 h
Experimental: Total RNA was extracted from cells or tissues using the NucleoSpin RNA kit (#740955.50, TaKaRa). RNA reverse transcriptions were performed with PrimeScript RT Reagent Kit with RNase inhibitor (#RR037B, TaKaRa). The quantitative PCR amplifications were performed in triplicate with TB Green Premix Ex Taq (Tli RNase H Plus) (#RR420A, TaKaRa) in an iCycler iQ system (Bio-Rad; Hercules, CA). Relative gene expression for interested genes was calculated using the 2^-ΔΔCt method and normalized to mGUSB expression. Primer sequences for RT-qPCR are as follows: mGli1 forward (5′-[…]-3′), reverse (5′-[…]-3′); mPtch1 forward (5′-[…]-3′), reverse (5′-[…]-3′); mGUSB forward (5′-[…]-3′), reverse (5′-[…]-3′).

[5] = tested on: light II and NIH-3T3 cells; assay: In vitro cytotoxicity assay (MTT); conditions: 10 μM, 72 h
Experimental: Cells were seeded in 96-well plates at an appropriate density and treated with compounds for 72 h. The effects on proliferation were determined using MTT according to the manufacturer's protocol.
Figure S2. (A) Viability of NIH-3T3 cells and light II cells was determined by MTT cytotoxicity assays after incubation with various concentrations of SIAIS361034 as indicated for 72 h. Data represent mean ± SD (n = 3). (B) NF-κB luciferase analysis of the effect of SIAIS361034 on NF-κB signaling pathway in 293T cells.The 293T cells were transfected with NF-κB luciferase reporter and Renilla-TK plasmids and […]
as §2, §3, §4

CC1(C)CCC(c2ccc(Cl)cc2)=C(CN2CCN(c3ccc(C(=O)NS(=O)(=O)c4ccc(NCCCN5CCN(CCCC#Cc6cccc7c6CN(C6CCC(=O)NC6=O)C7=O)CC5)c(S(=O)(=O)C(F)(F)F)c4)cc3)CC2)C1 (stereo not drawn) [SIAIS361034]
Gli1 protein level [1]: decreased Gli1 protein level
Hh activity evoked by ectopic expression of Gli2 [2]: significant potency
IC50 ([2]; ectopic Gli2-HA, 36 h): 85.1 nM
TCF/LEF luciferase activity (Wnt signaling) activated by PGE2 [3]: failed to repress
mRNA expression of Hh target genes Gli1 and Ptch1 activated by SAG [4]: significantly blocked
cytotoxicity (MTT) [5]: no toxic effects
